Patent EP1095021B1, “QUINOLINE DERIVATIVES” (Active Biotech AB, priority 1998, dated 2000)

What was measured:
[1] = test system: acute experimental autoimmune encephalomyelitis (aEAE); assay: Acute experimental autoimmune encephalomyelitis (aEAE) inhibition; format: in vivo, SJL/N female mice; conditions: for % aEAE Inhibition: percent inhibition of clinical scores compared to saline treated controls
foetuses = assay: Teratogenic effects in the rat; format: in vivo; conditions: for % malformed fetuses: day 8 to 14 of pregnancy
[2] = test system: Beagle Pain Syndrome (BPS); assay: Beagle Pain Syndrome (BPS); format: in vivo; conditions: different breeds of beagle dogs
Protocol: The disease is reflected by clinical and laboratory manifestations justifying BPS as a model for the flu-like syndrome induced by roquinimex in man.
Beagle Pain Syndrome (BPS).
The compounds were administrated intravenously to beagle dogs. The dosage was given for five consecutive days. The dogs were evaluated for clinical and laboratory signs of the pain syndrome, e.g., fever, increased erythrocyte sedimentation rate (ESR), alkaline phosphate (AP), induction of acute phase proteins and vasculitis

| Structure (SMILES) | % aEAE Inhibition ([1]; Dose 0.2 mg/kg p.o.) [%] | % aEAE Inhibition ([1]; Dose 1 mg/kg p.o.) [%] | % malformed fetuses (foetuses; Dose 6 mg/kg p.o.) [%] | % aEAE Inhibition ([1]; Dose 5 mg/kg p.o.) [%] | % malformed fetuses (foetuses; Dose 30 mg/kg p.o.) [%] | inhibition of acute experimental autoimmune encephalomyelitis (aEAE) ([1]; at ≥5 mg/kg, treatment control) | Beagle Pain Syndrome (BPS) [2] | % malformed fetuses (foetuses; Dose 10 mg/kg p.o.) [%] | teratogenic effect (foetuses; rat) |
| --- | --- | --- | --- | --- | --- | --- | --- | --- | --- |
| CN(C(=O)c1c(O)c2c(Cl)cccc2n(C)c1=O)c1ccccc1 [Compound C, N-Methyl-N-phenyl-1,2-dihydro-4-hydroxy-5-chloro-1-methyl-2-oxo-quinoline-3-carboxamide] | 92 | 100 | 37 | – | – | – | – | – | – |
| COc1cccc2c1c(O)c(C(=O)N(C)c1ccc(C(F)(F)F)cc1)c(=O)n2C [Compound A, N-methyl-N-(4-trifluoromethyl-phenyl)-1,2-dihydro-4-hydroxy-5-methoxy-1-methyl-2-oxo-quinoline-3-carboxamide] | 66 | 86 | 4 | 99 | 2 | – | – | – | – |
| CN(C(=O)c1c(O)c2c(Cl)cccc2n(C)c1=O)c1ccc(F)cc1F [Compound B, N-methyl-N-(2,4-difluorophenyl)-1,2-dihydro-4-hydroxy-5-chloro-1-methyl-2-oxo-quinoline-3-carboxamide] | 59 | 96 | 0 | 100 | – | – | – | – | – |
| CN(C(=O)c1c(O)c2ccccc2n(C)c1=O)c1ccccc1 [Compound D, N-phenyl-N-methyl-1,2-dihydro-4-hydroxy-1-methyl-2-oxo-quinoline-3-carboxamide] | 35 | 40 | – | 69 | 30 | more than 50% | induce the Beagle Pain Syndrome (BPS) | 9 | teratogenic |
